# Columns and labels:
# [1] = biological target: Methionine aminopeptidase 2 (Homo sapiens, UniProt P50579); assay: Inhibition of recombinant human N-terminal His tagged MetAP-2 using tripeptide Met-Ala-Ser as substrate preincubated for 15 mins followed by substrate addition measured after 45 mins by L-amino acid oxidase enzyme coupled assay
# [2] = Permeability in human Caco2 cells; assay type: ADME, cell-based; conditions: Caco-2, read-out: permeability
# [3] = Thermodynamic solubility of the compound; assay type: physicochemical; conditions: read-out: Therm_solubility
# Sequence of Methionine aminopeptidase 2 (P50579 whole entry): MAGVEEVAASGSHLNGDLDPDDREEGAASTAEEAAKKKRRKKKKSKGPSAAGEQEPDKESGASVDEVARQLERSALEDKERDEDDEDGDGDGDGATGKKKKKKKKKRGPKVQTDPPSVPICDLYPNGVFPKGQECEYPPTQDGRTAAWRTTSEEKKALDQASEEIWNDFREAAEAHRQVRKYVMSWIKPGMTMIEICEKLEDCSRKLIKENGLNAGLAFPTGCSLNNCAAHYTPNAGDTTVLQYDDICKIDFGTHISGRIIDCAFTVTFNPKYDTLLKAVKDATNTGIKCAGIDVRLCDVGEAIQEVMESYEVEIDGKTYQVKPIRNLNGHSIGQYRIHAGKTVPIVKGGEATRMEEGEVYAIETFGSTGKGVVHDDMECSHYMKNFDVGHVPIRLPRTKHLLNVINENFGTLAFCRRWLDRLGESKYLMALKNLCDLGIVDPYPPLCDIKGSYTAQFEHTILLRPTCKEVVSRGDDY
IC50 [1],Papp [2],solubility thermodynamic [3],SMILES
> 50 µM,–,–,Clc1ccccc1OC[C@H]1CCCN1c1ncnc2ncccc12
> 50 µM,–,–,Fc1cccc(OC[C@H]2CCCN2c2ncnc3[nH]ccc23)c1
–,21 ×10⁻⁶ cm/s,171 µg/mL,c1ccc2c(OC[C@H]3CCCN3c3ccnc4ncnn34)cncc2c1

# Reference: ChEMBL document CHEMBL4000189, “Novel reversible methionine aminopeptidase-2 (MetAP-2) inhibitors based on purine and related bicyclic templates” (Bioorg Med Chem Lett, 2017)
